Reference: ChEMBL document CHEMBL1155979, “Synthesis of gibberellin derivatives with anti-tumor bioactivities” (Bioorg Med Chem Lett, 2009)
Converted amounts (≈) assume the structure as drawn. The source made the active and inactive calls. The calls are words filed in the database; no cut-off is given here.

Key:
A549 = assay: Cytotoxicity against human A549 cells by MTT assay; type: functional, cell-based
HT-29 = assay: Cytotoxicity against human HT-29 cells by MTT assay; type: functional, cell-based
MKN-28 = assay: Cytotoxicity against human MKN28 cells by MTT assay; type: functional, cell-based
HepG2 = assay: Cytotoxicity against human HepG2 cells by MTT assay; type: functional, cell-based
HL-60 = assay: Cytotoxicity against human HL60 cells by MTT assay; type: functional, cell-based
[1] = Cytotoxicity against human BIU87 cells by MTT assay; type: functional, cell-based
[2] = molecular target: T1, DNA topoisomerase 1 (Homo sapiens) (UniProt P11387); assay: Inhibition of topoisomerase I relaxation activity assessed as supercoiled pBR322 DNA
T1 sequence (whole entry): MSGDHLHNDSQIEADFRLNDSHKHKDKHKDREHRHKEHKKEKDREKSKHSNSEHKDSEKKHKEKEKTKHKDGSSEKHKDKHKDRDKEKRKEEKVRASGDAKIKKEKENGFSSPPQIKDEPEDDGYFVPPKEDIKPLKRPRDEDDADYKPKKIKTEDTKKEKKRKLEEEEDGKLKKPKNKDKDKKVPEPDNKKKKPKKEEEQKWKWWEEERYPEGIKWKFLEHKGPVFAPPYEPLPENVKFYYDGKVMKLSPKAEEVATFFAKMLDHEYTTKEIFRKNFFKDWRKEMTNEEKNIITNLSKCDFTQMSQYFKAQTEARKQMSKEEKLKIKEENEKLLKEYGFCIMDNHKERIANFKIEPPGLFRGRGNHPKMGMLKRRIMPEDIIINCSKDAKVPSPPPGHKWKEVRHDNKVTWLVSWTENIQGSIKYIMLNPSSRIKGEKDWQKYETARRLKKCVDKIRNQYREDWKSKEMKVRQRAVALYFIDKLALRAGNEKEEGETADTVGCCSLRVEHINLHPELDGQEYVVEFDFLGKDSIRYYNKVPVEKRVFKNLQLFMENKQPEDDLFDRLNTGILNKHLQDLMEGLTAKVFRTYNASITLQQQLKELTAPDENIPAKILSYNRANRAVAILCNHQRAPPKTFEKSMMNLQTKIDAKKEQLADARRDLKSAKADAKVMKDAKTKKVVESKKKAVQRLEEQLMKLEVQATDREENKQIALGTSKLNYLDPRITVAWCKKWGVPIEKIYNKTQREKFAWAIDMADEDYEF

[3] = molecular target: T1, DNA topoisomerase 1 (Homo sapiens); assay: Inhibition of topoisomerase I relaxation activity assessed as supercoiled pBR322 DNA at 8 ug/ml

SMILES	IC50 (A549) [µM]	IC50 (HT-29) [µM]	IC50 (MKN-28) [µM]	IC50 (HepG2) [µM]	IC50 (HL-60) [µg/mL]	IC50 [1] [µg/mL]	inhibition [2]	inhibition [3]
C=C1C(=O)[C@]23C[C@@]1(F)CC[C@H]2[C@@]12C=CC(=O)[C@](C)(C(=O)O1)[C@H]2[C@@H]3C(=O)OC	38.9	72.7	4.1	40.6	–	–	–	–
C=C1[C@H](O)[C@]23C[C@@]1(O)CC[C@H]2[C@@]12C=C[C@H](O)[C@](C)(C(=O)O1)[C@H]2[C@@H]3C(=O)OCc1ccccc1	–	–	–	–	> 100	> 100	–	–
C=C1C(=O)[C@]23C[C@@]1(Cl)CC[C@H]2[C@@]12C=CC(=O)[C@](C)(C(=O)O1)[C@H]2[C@@H]3C(=O)OC	60.3	2.9	4.8	39.8	6.5 (≈ 16.6 µM)	1 (≈ 2.56 µM)	Dose-dependent effect	Active
C=C1C(=O)[C@]23C[C@@]1(OCC)CC[C@H]2[C@@]12C=CC(=O)[C@](C)(C(=O)O1)[C@H]2[C@@H]3C(=O)OC	18.2	34.1	82.7	120	–	–	–	–
C=C1[C@H](O)[C@]23C[C@@]1(OC(C)=O)CC[C@H]2[C@@]12C=C[C@H](OC(C)=O)[C@](C)(C(=O)O1)[C@H]2[C@@H]3C(=O)OCc1ccccc1	–	–	–	–	> 100	> 100	–	–
C=C1C(=O)[C@]23C[C@@]1(O)CC[C@H]2[C@@]12C=CC(=O)[C@](C)(C(=O)O1)[C@H]2[C@@H]3C(=O)OC	90.9	65.7	39.6	37.2	–	–	–	–
C=C1[C@H](O)[C@]23C[C@@]1(O)CC[C@H]2[C@@]12C=C[C@H](O)[C@](C)(C(=O)O1)[C@H]2[C@@H]3C(=O)OC	–	–	–	–	> 100	> 100	–	–
C=C1C[C@]23C[C@@]1(OC(C)=O)CC[C@H]2[C@@]12C=C[C@H](OC(C)=O)[C@](C)(C(=O)O1)[C@H]2[C@@H]3C(=O)OCc1ccccc1	–	–	–	–	> 100	> 100	–	–
C=C1C(=O)[C@]23C[C@@]1(I)CC[C@H]2[C@@]12C=CC(=O)[C@](C)(C(=O)O1)[C@H]2[C@@H]3C(=O)OCc1ccccc1	46	50.2	3	69.5	–	–	–	–
C=C1C[C@]23C[C@@]1(O)CC[C@H]2[C@@]12C=C[C@H](O)[C@](C)(C(=O)O1)[C@H]2[C@@H]3C(=O)OCc1ccccc1	–	–	–	–	> 100	> 100	–	–
C=C1C[C@]23C[C@@]1(O)CC[C@H]2[C@@]12C=C[C@H](O)[C@](C)(C(=O)O1)[C@H]2[C@@H]3C(=O)OC	–	–	–	–	> 100	> 100	–	–
C=C1C(=O)[C@]23C[C@@]1(I)CC[C@H]2[C@@]12C=CC(=O)[C@](C)(C(=O)O1)[C@H]2[C@@H]3C(=O)OC	53.2	51.9	6.7	87	–	–	–	–
C=C1C(=O)[C@]23C[C@@]1(OC)CC[C@H]2[C@@]12C=CC(=O)[C@](C)(C(=O)O1)[C@H]2[C@@H]3C(=O)OCc1ccccc1	28.2	48.4	0.8	35	–	–	–	–
CC[C@]1(O)C[C@H]2CN(CCc3c([nH]c4ccccc34)[C@@](C(=O)OC)(c3cc4c(cc3OC)N(C=O)[C@H]3[C@@](O)(C(=O)OC)[C@H](OC(C)=O)[C@]5(CC)C=CCN6CC[C@]43[C@@H]65)C2)C1 [VINCRISTINE]	2.5	5.3	7.1	3.7	–	–	–	–
C=C1C[C@]23C[C@@]1(O)CC[C@H]2[C@@]12C=C[C@H](O)[C@](C)(C(=O)O1)[C@H]2[C@@H]3C(=O)O [GIBBERELLIN GA3]	–	–	–	–	> 100	> 100	–	–
C=C1C[C@]23C[C@@]1(O)CC[C@H]2[C@@]12C=CC(=O)[C@](C)(C(=O)O1)[C@H]2[C@@H]3C(=O)OCc1ccccc1	–	–	–	–	> 40	> 40	–	–
C=C1C(=O)[C@]23C[C@@]1(F)CC[C@H]2[C@@]12C=CC(=O)[C@](C)(C(=O)O1)[C@H]2[C@@H]3C(=O)OCc1ccccc1	64.4	59.1	9.8	44.1	–	–	–	–
C=C1C(=O)[C@]23C[C@@]1(Cl)CC[C@H]2[C@@]12C=CC(=O)[C@](C)(C(=O)O1)[C@H]2[C@@H]3C(=O)OCc1ccccc1	28.8	4.5	6.8	17.9	2.7 (≈ 5.78 µM)	0.5 (≈ 1.07 µM)	–	–
C=C1C(=O)[C@]23C[C@@]1(OC(C)=O)CC[C@H]2[C@@]12C=C[C@H](OC(C)=O)[C@](C)(C(=O)O1)[C@H]2[C@@H]3C(=O)OCc1ccccc1	–	–	–	–	> 40	> 40	–	–
C=C1C(=O)[C@]23C[C@@]1(OC)CC[C@H]2[C@@]12C=CC(=O)[C@](C)(C(=O)O1)[C@H]2[C@@H]3C(=O)OC	54.5	80.2	3.4	43.5	–	–	–	–
C=C1C(=O)[C@]23C[C@@]1(OCC)CC[C@H]2[C@@]12C=CC(=O)[C@](C)(C(=O)O1)[C@H]2[C@@H]3C(=O)OCc1ccccc1	24.2	23.3	16.5	29.6	–	–	–	–
C=C1C(=O)[C@]23C[C@@]1(O)CC[C@H]2[C@@]12C=CC(=O)[C@](C)(C(=O)O1)[C@H]2[C@@H]3C(=O)OCc1ccccc1	23.9	83.3	2.5	20.5	–	–	–	–
